From PMC7162492, “Pharmacological and pharmacokinetic profile of the novel ocular hypotensive prodrug CKLP1 in Dutch-belted pigmented rabbits” (PLoS ONE, 2020) come the findings set out here.

Data set [1] relates to Dutch-belted pigmented rabbits. Description: Histology of tissues at necropsy after 90 days of topical CKLP1. It counts as in vivo. The conditions noted are these: topical CKLP1 once daily, masked veterinary pathologist. From the text: (§1) All experiments with animals were pre-approved by the Institutional Animal Care and Use Committee of the Mayo Clinic, Rochester, MN and adhered to the recommendations in the Guide for the Care and use of Laboratory Animals of the National Institutes of Health, and the tenets of the ARVO Statement for the Use of Animals in Vision Research. Female Dutch-belted pigmented rabbits (age 7 months) were obtained from Covance Research Products, Inc. (Denver, PA). Rabbits were housed in pairs and kept in a climate controlled room with 12 h light and dark cycles. Animals had unrestrained access to water and standard rabbit food pellets at all times. Upon receipt, animals were acclimated for at least 5 days before initiation of the experiment. IOP was measured with a handheld rebound tonometer (Icare Tonovet, Colonial Medical Supply, Franconia, NH, USA) in conscious and minimally restrained, non-anesthetized rabbits as previously described. Briefly, daily IOP was calculated from the average of 3 independent IOP measurements at 3 different time points each day. […]
To assess cell and tissue morphology following CKLP1 treatment for 90 days, necropsy was performed on all 6 treated rabbits. Representative hematoxylin and eosin stained sections from 34 tissues were isolated, processed and assessed in a masked manner by a certified veterinary pathologist. […]

A short description of data set [2]: Tissue and fluid distribution after 90 days of daily topical CKLP1 (LC-MS/MS). Format: in vivo, Dutch-belted pigmented rabbits. As to conditions: topical eye drops 10 mM CKLP1, 90 consecutive days. Here is the method: LC-MS/MS analysis of all fluids were performed using a Waters (Milford, MA) Acquity UPLC BEH C18 column (1.7 μm, 2.1 x 50 mm) with an Agilent EC-C18 pre-column (2.7 μm, 2.1 x 5 mm) and a gradient elution program containing ultra-pure water and acetonitrile with 2.5 mM ammonium formate, at a flow rate of 0.2 ml/min. Flavopiridol was used as an internal standard. The column and auto-sampler temperatures were maintained at 40°C and 4°C, respectively. Source parameters were capillary voltage, 2.6 kV; source temperature, 150°C; desolvation temperature, 500°C; cone gas flow, 150 L/h; and desolvation gas flow, 800 L/h. The cone voltages and collision energies for CKLP1, levcromakalim and flavopiridol were determined by MassLynx-Intellistart software, v4.1, and were 32, 34 and 72 V (cone) and 20, 14 and 30 eV (collision), respectively. The retention times were 4.5 minutes for CKLP1, 5.9 minutes for levcromakalim and 5.7 minutes for flavopiridol.
To validate accurate measurement of CKLP1 and levcromakalim, known concentrations of CKLP1 (5, 10, 25, 50, 100, 250, 500 ng/ml) and levcromakalim (1, 5, 10, 25, 50, 100, 250 ng/ml) were added to human plasma (obtained from the Mayo Clinic Division of Transfusion Medicine under an Institutional Review Board approved protocol) to make calibration curves. Quality control was determined for each run by using known quantities of CKLP1 and levcromakalim to verify that the instrument recorded values consistent with the established standard curve. The effect of carryover was evaluated by injecting blank samples before and after running the standard samples for calibration curves. Unknown samples with signal to noise ratios >10 were recorded as acceptable concentrations. Samples with signal to noise ratios <10 were reported as not detectable (ND). Controls consisted of a double blank (without analytes and internal standard) and a single blank (only internal standard). The linearity of the calibration curves was determined by plotting the ratios of analytes to internal standard peak areas. The curve was fitted by least squares regression with a 1/x weighting for both CKLP1 and levcromakalim. Data was collected from 3–6.4 minutes for CKLP1 and 4–8 minutes for both levcromakalim and flavopiridol. Waters MassLynx Intellistart software v4.1 was used for analysis.
as §1, with “day. These time points corresponded to 1 h, 4 h and 23 h post treatment on any given day. Rabbits that needed to be handled for IOP were subjected to sham IOP measurements for two days prior to initiation of experiment. Rabbits (n = 3) were injected intravenously through the right ear vein with CKLP1 as a bolus dose equal to 0.25 mg/kg body weight. Additional rabbits were treated topically through instillation of 50 μl eye drops of a 10 mM (4.1 mg/ml) solution of CKLP1 in sterile PBS.” for “day.”

Data set [3] has as its system IOP in Dutch-belted pigmented rabbits. Description: IOP measurement by rebound tonometer during 90 days of topical CKLP1. It counts as in vivo. From the text:
All experiments with animals were pre-approved by the Institutional Animal Care and Use Committee of the Mayo Clinic, Rochester, MN and adhered to the recommendations in the Guide for the Care and use of Laboratory Animals of the National Institutes of Health, and the tenets of the ARVO Statement for the Use of Animals in Vision Research. Female Dutch-belted pigmented rabbits (age 7 months) were obtained from Covance Research Products, Inc. (Denver, PA). Rabbits were housed in pairs and kept in a climate controlled room with 12 h light and dark cycles. Animals had unrestrained access to water and standard rabbit food pellets at all times. Upon receipt, animals were acclimated for at least 5 days before initiation of the experiment. IOP was measured with a handheld rebound tonometer (Icare Tonovet, Colonial Medical Supply, Franconia, NH, USA) in conscious and minimally restrained, non-anesthetized rabbits as previously described. Briefly, daily IOP was calculated from the average of 3 independent IOP measurements at 3 different time points each day. These time points corresponded to 1 h, 4 h and 23 h post treatment on any given day. Rabbits that needed to be handled for IOP were subjected to sham IOP measurements for two days prior to initiation of experiment. Rabbits (n = 3) were injected intravenously through the right ear vein with CKLP1 as a bolus dose equal to 0.25 mg/kg body weight. Additional rabbits were treated topically through instillation of 50 μl eye drops of a 10 mM (4.1 mg/ml) solution of CKLP1 in sterile PBS. Topical CKLP1 application was continued once daily (9:30 am every day) for either 1 (n = 3), 4 (n = 3), 8 (n = 3) or 90 days (n = 6). In the 1, 4 and 8 day groups, drug was added to both eyes, whereas in the 90 day group, CKLP1 was added to one eye while the contralateral eye received vehicle (PBS, Corning, Manassas, VA).
IOP values are represented as mean ± standard deviation. IOP differences between treated and control eyes were compared using two-tailed paired Student’s t-test. Pharmacokinetic parameters (Cmax, Tmax, AUC and concentration of CKLP1 and levcromakalim) across various days following treatment were compared with one-way ANOVA. Criterion for statistically significant difference of means was set at p<0.05. Statistical analyses were performed using Microsoft Excel and its data analysis add-on feature.

The mark [4] stands for this setting: 10 mM CKLP1 eye drop daily, 90 days.

“And” between values parts separate entries of the source, which are not always exact repeats. Equal values may be shown once. “Also recorded” adds a separate entry of the source.

Consider “sodium [CKLP1, sodium [(3S,4R)-6-cyano-2,2-dimethyl-4-(2-oxopyrrolidin-1-yl)-chroman-3-yl phosphate]]”, for which the “Histological changes in tissues” value in data set [1] was “No observable histological changes; also recorded: did not show any observable histological changes; also recorded: No observable differences in histology”. Also, in data set [2], the “Concentration in Brain” value was “not detected”; the “Concentration in Heart” value is given as “not detected”; the “Concentration in Kidney” value is 15.8 ±1.8 ng/g and 15.8 ± 1.8 (n = 6/6) ng/g; the “Concentration in Muscle” value is “not detected”. Moreover, in data set [2], the “Concentration in Plasma” value was “no detectable levels”, the “Concentration in aqueous humor” value is on record as “undetectable” and the “Concentration in vitreous humor” value is “undetectable”. In data set [3] (setting [4]), the “IOP drop in the treated eye compared to baseline” value is 11.4 ± 4.7% and 11.4%; the “IOP reduction in treated eye compared to contralateral vehicle treated eye” value is listed as 14.1 ± 1.0%. In data set [3] (10 mM CKLP1 eye drop daily, 90 days, n = 6), the “IOP absolute change in treated eyes compared to control eyes” value is 2.4 ± 0.4 mmHg. Besides, in data set [3] (10 mM CKLP1 eye drop daily, 90 days, baseline 16.5 ± 0.7), the “IOP in the treated eye” value turned out to be 14.6 ± 1.0 mm Hg. Besides, the “Average IOP in treated eyes post treatment (washout group)” value in data set [3] (after cessation of 90-day treatment, n = 3, baseline 16.5 ± 0.7) was determined as 15.6 ± 0.6 mm Hg.
